Results: patent US4312883A, “Furocoumarin for the photochemotherapy of psoriasis and related skin diseases” (Consiglio Nazionale delle Ricerche, priority 1979, dated 1982)
Structures can show the parent of a compound that is named as a salt. Where two headings read alike, the source gives them in different places.

Experiments:
[1] = tested on: skin; assay: Relative skin phototoxicity; conditions: (psr = 100)
[2] = tested on: RNA synthesis in Ehrlich ascites tumor cells; assay: Inhibition of RNA synthesis on irradiation at 365 nm; assay type: cell-based; conditions: relative (ang = 100)
From the text: (§1) Photobiological activity: A significant test for assessing photobiological activity of alkylangelicins is the study of their capacity to inhibit DNA and RNA synthesis in Ehrlich ascites tumor cells. In Table III the capacity of inhibition is expressed as ID50, that is the irradiation does, in terms of quanta at 365 nm, necessary to inhibit in these cells the 50% of the DNA and RNA synthesis in the presence of a constant amount of alkylangelicin. […] Moreover, in general it can be observed that in this simple biological system a close correlation exists between photobiological activity and the capacity to induce photochemical lesions in DNA, that is photoreactivity.

[3] = tested on: DNA; assay: Dark complex formation (intercalation) with DNA in the ground state, binding parameters; set-up: K (association constants) of the complexes with DNA: unit not given here; conditions: for K (association constants) of the complexes with DNA / 1/n (frequency of binding sites): in vitro, ground state; for K (association constants) of the complexes with DNA: McGhee and Von Hippel method; for 1/n (frequency of binding sites): molecules bound per nucleotide; for 1/n (frequency of binding sites), relative / K (association constants), relative: relative (ang = 100)
From the text: Dark complex formation: It is known from F. Dall'Acqua, et al. Chem.-Biol. Interactions 21,103 (1978) that the intercalated complex formed by furocoumarins with DNA strongly affects the successive photoaddition increasing the rate of photobinding. […] These parameters have been determined according to the method of McChee and Von Hippel, J.Mol.Biol, 86, 469 (1974).
(a) Determined according to Mc Ghee and Von Hippel, J. Mol. Biol.,

[4] = tested on: epidermal DNA synthesis; assay: Inhibition of epidermal DNA synthesis in the mouse in vivo after topical application and UV-A irradiation; conditions: light or radiation study, 0.01% methanol solutions, UV-A 9 J/cm^2, read-out: Percent inhibition ± standard error of epidermal DNA synthesis
Protocol: DNA samples were dissolved in water and their specific radioactivity determined.
Each drug substance was studied using at least six mice.

[5] = tested on: DNA; assay: Photobinding to DNA, rate constants of the photoreactions; assay type: biochemical; conditions: for photobinding capacity to DNA (in words): versus angelicin; for Rate constants of the photoreactions with DNA: in vitro, UV-A irradiated; for Rate constants of the photoreactions with DNA, relative: relative (ang = 100)
From the text: (b) Determined according to F. Dall'Acqua, S. Marciani, F. Zambon and G.
Rodighiero, Photochem. Photobiol., 29,489(1979).
Photobinding capacity to DNA: The introduction of one or two methyl groups in the molecule of angelicin leads to a strong increase of the photobinding to DNA; see Table II. […] Photobiol., 29, 489 (1979).

[6] = tested on: DNA; assay: Capacity to form inter-strand cross-linkages in DNA; assay type: biochemical; conditions: (psr = 100)
Protocol: All these compounds were not suitable to photoinduce in DNA inter-strand cross-linkages. […] These tests were carried out according to the method of F. Bordin et al., Photochem. Photobiol., 29,1063 (1979).

[7] = Solubility; assay type: physicochemical
[8] = tested on: DNA synthesis in Ehrlich ascites tumor cells; assay: Inhibition of DNA synthesis (and DNA and RNA synthesis) on irradiation at 365 nm; assay type: cell-based; conditions: for inhibition of DNA synthesis, relative: relative (ang = 100)
From the text: as §1

[9] = tested on: psoriasis; assay: Topical photochemotherapy of psoriasis in patients; assay type: in vivo, human; conditions: topical 0.1% w/v + UV-A; for No. of patients with Excellent result: Excellent = 90% clearance; for No. of patients with Fair result: Fair = 50-70%; for No. of patients with Good result: Good = 70-90%; for No. of patients with Poor result: Poor 40%
From the text: Clinical data: The effectiveness of certain representative alkylangelicins according to the present invention, specifically 5-methylangelicin, 4,5'-dimethylangelicin, 4'-hydroxymethyl-4,5'-dimethylangelicin, 4'-hydroxymethyl-4,5'-dimethylangelicin and 4,5-dimethylangelicin, has been tested by measuring their capacity to resolve psoriasis in various patients. For a direct comparison the efficacy of the parent unsubstituted angelicin and that of three very effective linear furocoumarins, that is 8-methoxypsoralen (8-MOP), 5-methoxypsoralen (5-MOP), and 4,5',8-trimethylpsoralen (TMP) were also tested.
In each treatment four areas of the affected skin were used;
(a) In the first area an alcohol lotion, containing 10% glycerine, of the tested compound (0.1% w/v) was applied until a concentration of […] was reached then left to evaporate by the heat of the body. After half an hour the area was irradiated with high intensity UV-A emitting low pressure mercury fluorescent lamps with a wavelength of 320-400 nm. The irradiation doses were selected in the range of 4.5-13 J/cm^2 for each application as a function of the sensitivity of the skin of the patients; when the skin sensitivity was higher, the light doses were lower and vice versa.
(b) A second area was treated with an alcohol solution of the drug as in (a) but it was covered and maintained in the dark.
(c) A third area, where the drug was not applied, was irradiated as in (a) but in general with higher UV-A doses.
(d) A fourth area was not treated at all, neither with the drug, not with UV-A.
The treatment with the alkylangenlicins referred to above was repeated 5 time a week for two or more weeks; the total number of treatments was between 8 and 20 per subject. In some cases, as for instance with 5-methylangelicin, a good clearing of psoriasis was observed after 8 treatments.
In order to avoid induction of photosensitization processes such as redness and erythema in the reference tests made with the linear furocoumarins 8-MOP, 5-MOP, TMP, lower light doses were used than in the case of alkylangelicins, the treatments were repeated at a frequency of no more than three times a week.

[10] = tested on: epidermal DNA synthesis; assay: Inhibition of the synthesis of epidermal DNA of the mouse in vivo after oral administration and UV-A irradiation; conditions: oral 0.25 g/Kg, UV-A 9 J/cm^2 after two hours
From the text: Considering that the topical skin tests carried out on mice to evaluate the effectiveness of these substances has yielded data which correlate well with the clinical data, such a test conveniently modified has been adopted to evaluate the effectiveness of the alkylangelicins after oral administration followed by UV-A irradiation.
In this connection experiments have been conducted using mice 20±2 g in weight, that were starved for three hours before oral administration of the alkylangelicins. Groups of 5 mice were fed a suspension of 0.5% methylcellulose in water containing the alkylangelicins of the invention at a dosage of 0.25 g/Kg. The animals were kept in the dark for two hours, that is for the time necessary for absorption, systemic distribution and localization of the drug at the level of the skin. The animals were then irradiated with UV-A light, 9 J/cm^2. Later the animals were sacrificed and the inhibition of the epidermal DNA synthesis was tested; the results obtained are reported in Table VI. The skin on the back, protected from light by a dark paper, was assumed as a control. As a reference 8-MOP, used under the same experimental conditions, was also tested. The significant activity of the alkylangelicins according to the present invention, higher than that of 8-MOP, in inhibiting the epidermal DNA synthesis in mice upon oral administration allows one to consider these compounds as also being effective for oral administration to humans for photochemotherapy of psoriasis and of other skin diseases that are characterized by cellular hyperproliferation.

[11] = Acute toxicity in mice; conditions: mouse, in vivo, po
[12] = Table I; cited from earlier work
[13] = known furocoumarins, Table I; cited from earlier work
[14] = tested on: DNA synthesis; conditions: Table I; cited from earlier work
[15] = tested on: melamin pigmentation; conditions: Table I; cited from earlier work
[16] = cited from earlier work
[17] = tested on: DNA; conditions: cited from earlier work; for DNA intercalation property / Interstrand cross-linking induction in DNA / Monoadduct forming property: Table I; for Photobinding capacity to DNA: known furocoumarins
[18] = tested on: DNA; conditions: (psr = 100); footnote (c), reference compounds; cited from earlier work

| Structure (SMILES) | Relative skin phototoxicity [1] | inhibition of RNA synthesis, relative [2] | K (association constants) of the complexes with DNA [3] | 1/n (frequency of binding sites) [3] | 1/n (frequency of binding sites), relative [3] | K (association constants), relative [3] | inhibition in vivo at 0.01 % [4] | photobinding capacity to DNA (in words) [5] | capacity to form interstrand cross-linkages [6] | water solubility [7] | inhibition of DNA synthesis, relative [8] | Rate constants of the photoreactions with DNA [5] | Rate constants of the photoreactions with DNA, relative [5] | No. of patients with Excellent result [9] | No. of patients with Fair result [9] | No. of patients with Good result [9] | No. of patients with Poor result [9] | Mutagenicity [12] | Photosensitizing activity [13] | DNA synthesis inhibiting property [14] | also measured |
| --- | --- | --- | --- | --- | --- | --- | --- | --- | --- | --- | --- | --- | --- | --- | --- | --- | --- | --- | --- | --- | --- |
| Cc1oc2ccc3c(C)cc(=O)oc3c2c1COCCN(C)C [4,5'-dimethyl-4'-N,N-dimethylaminoethoxymethylangelicin] | 0 | 162 | > 10000 | > 0.15 | > 230 | > 1700 | 29.4 ± 16.2% | strongly increased photobinding capacity | 0 | water soluble | 290 | – | – | – | – | – | – | – | – | – | increase of K (affinity towards DNA) ([3]; on introduction of a cationic moiety in addition to the two methyl groups): more than 20 times |
| Cc1oc2ccc3c(C)cc(=O)oc3c2c1CN [4,5'-dimethyl-4'-aminomethylangelicin hydrochloride] | 0 | 23.3 | 16300 | 0.255 | 404 | 2910 | – | lower than that of angelicin | 0 | water soluble | 25 | 0.8 K × 10^-2 × min^-1 | 72 | – | – | – | – | – | – | – | capacity to inhibit the DNA and RNA synthesis (in words) ([8]; Ehrlich ascites tumor cells, versus angelicin): lower than that of angelicin |
| Cc1cc2c(ccc3c(C)cc(=O)oc32)o1 [4,5'-dimethylangelicin] | 0 | 172 | 1410 | 0.094 | 149 | 252 | 37.6 ± 4.9% | – | 0 | – | 230 | 4.0 K × 10^-2 × min^-1 | 363 | 0 patients | 3 patients | 1 patients | 0 patients | – | – | – | Percent inhibition ± standard error of epidermal DNA synthesis [10]: 51.0 ± 8.0%; LD50 [11]: 2500 mg/kg |
| COc1c2ccoc2cc2oc(=O)ccc12 [5-MOP, 5-methoxypsoralen] | – | – | – | – | – | – | – | – | – | – | – | – | – | 0 patients | 1 patients | 4 patients | 4 patients | known, strong | known, strong | known, strong | Stimulation of melamin pigmentation [15]: strong, well known; Carcinogenicity (oral) [16]: weak; Carcinogenicity (topical) [16]: strong; DNA intercalation property [17]: strong; Interstrand cross-linking induction in DNA [17]: strong, well known; Monoadduct forming property [17]: known, strong; Photobinding capacity to DNA [17]: known, strong |
| Cc1cc2cc3c(C)cc(=O)oc3c(C)c2o1 [TMP, 4,5',8-trimethylpsoralen] | – | – | – | – | – | – | – | – | – | – | – | – | – | 2 patients | 2 patients | 2 patients | 2 patients | known, strong | known, strong | known, strong | Stimulation of melamin pigmentation [15]: strong, well known; Carcinogenicity (oral) [16]: weak; Carcinogenicity (topical) [16]: strong; DNA intercalation property [17]: strong; Interstrand cross-linking induction in DNA [17]: strong, well known; Monoadduct forming property [17]: known, strong; Photobinding capacity to DNA [17]: known, strong |
| O=c1ccc2cc3ccoc3cc2o1 [psoralen, reference compound] | 100 | 166 | 400 | 0.108 | 171 | 71.4 | 47.8 ± 7.9% | – | – | – | 275 | 3.8 K × 10^-2 × min^-1 | 345 | – | – | – | – | – | – | – | capacity to form interstrand cross-linkages [18]: 100 |
